Results: patent US11933794B2, “Method for determining factor Xa inhibitor dosage” (Good Biomarker Sciences B.V., priority 2017, dated 2024)
Each block holds one compound with its values, some of them ahead of it.

Key:
[1] = test system: clot growth in hemophilia plasma (deficient in Factor IX and Factor VIII); assay: Clot growth experiments comparing normal and hemophilia plasma; type: biochemical, human; details: hemophilia plasmas; in contrast to what was found in normal plasma
Excerpt: For clot growth, this now appears the key mechanism. In contrast, in text books, activation of Factor VIII is indicated to be a thrombin action.
(§1) The clot growth rate assay monitors over time fibrin clot development in a nonstirred thin layer of platelet-free plasma activated by immobilized tissue factor. For this, the Thrombodynamics Basic Kit can be used as an in vitro diagnostic kit used to perform measurements of spatiotemporal dynamics of fibrin clot formation in blood plasma samples. The kit consists of measurement cuvettes, activating inserts and reagents for samples treatment. The kit is obtainable from HemaCore intended for professional use in the laboratory on the Thrombodynamics Analyzer T-2. See, for further details, Soshitova et al. (Blood Coagul. Fibrinolysis, 2012 September; 23(6):498-507).

[2] = test system: coagulation status; assay: Coagulation status of patients by routine coagulation test (activated partial thromboplastin time, APTT); type: in vivo, human
Procedure: Four subjects in need of […] are selected, including three patients with thrombosis, and one patient with coronary artery disease.
Coagulation status of patients 1-4 is determined by a routine coagulation test (activated partial thromboplastin time, APTT).

[3] = test system: fibrin clot formation in blood plasma; assay: Clot growth rate assay (Thrombodynamics) in plasma samples with defined Factor VIII levels; type: biochemical, human; details: for inhibition of clot growth rate: FIG. 1
Excerpt: as §1
Five plasma samples were prepared containing 50%, 75%, 100%, 150%, or 200% Factor VIII, respectively. The samples were prepared using FVIII-deficient plasma, normal plasma from healthy subjects, and FVIII concentrate and Factor VIII levels were measured and confirmed by the one-stage clotting assay. Each of these five plasma samples was subdivided into five subsamples to which apixaban was added to a total concentration of 0 μM, 0.1 μM, 0.2 μM, 0.35 μM, or 0.5 μM in plasma, respectively. The 25 subsamples were subjected to a clot growth assay as described above, and the clot growth rate was measured at 2500 seconds after start of growth.
For each different Factor VIII concentration (i.e., 50%, 75%, 100%, 150% or 200%), five bars are shown representing subsamples to which apixaban was added to a different total concentration, i.e., 0 μM, 0.1 μM, 0.2 μM, 0.35 μM, or […], respectively.

Structure (SMILES): COc1ccc(-n2nc(C(N)=O)c3c2C(=O)N(c2ccc(N4CCCCC4=O)cc2)CC3)cc1 [apixaban]
inhibition of clot growth [1]: did not inhibit clot growth
coagulation status (APTT): risk of blood clotting or bleeding events ([2]; Patient 1 (thrombosis), Factor VIII 80% of standard plasma, 5 mg per day): no increased risk of blood clotting or bleeding events
coagulation status (APTT): risk of blood clotting or bleeding events ([2]; Patient 4 (coronary artery disease), Factor VIII 240% of standard plasma, 5 mg per day): increased risk of blood clotting events
inhibition of clot growth rate ([3]; Factor VIII level below 100%, lowest apixaban concentration (0.1 μM in plasma)): close to maximal inhibition
inhibition of clot growth rate ([3]; Factor VIII levels above 100%, 0.1 μM apixaban): not be very effective
inhibition of clot growth rate ([3]; Factor VIII levels above 100%, 0.35 μM apixaban in plasma): substantial inhibition

Structure (SMILES): O=C(NC[C@H]1CN(c2ccc(N3CCOCC3=O)cc2)C(=O)O1)c1ccc(Cl)s1 [rivaroxaban]
inhibition of clot growth [1]: did not inhibit clot growth
effects in the clot growth rate assay compared with apixaban ([3]; FIG. 2): closely mimic the effects of apixaban

coagulation status (APTT): risk of blood clotting or bleeding events ([2]; Patient 2 (thrombosis), Factor VIII 95% of standard plasma, 20 mg per day): increased risk of bleeding events
Structure (SMILES): CN1CCc2nc(C(=O)N[C@@H]3C[C@@H](C(=O)N(C)C)CC[C@@H]3NC(=O)C(=O)Nc3ccc(Cl)cn3)sc2C1 [edoxaban]
